From patent publication EP0640601B1, “BENZAMIDE DERIVATIVE” (HOKURIKU SEIYAKU CO., LTD., priority 1991, dated 1992)
Where a name gives a salt, the structure may show the parent alone. Read-outs that look alike come from different tables or passages of the source.

Test system: gastrointestinal motility
Test: Effects on gastrointestinal motility in conscious dog (force transducers implanted on stomach and colon, motor index)
Assay type: in vivo
Settings: Canis lupus familiaris, iv, 20 min, about two hours after feeding, motor index for twenty minutes before and after administration; for change in vivo at 0.1 mg/kg: dose 0.1 mg/kg i.v.; for change in vivo at 1 mg/kg: dose 1 mg/kg i.v.
Method: Under systemical anesthesia, force transducers were chronically implanted to the stomach and the colon of the adult male or female dogs in a direction to measure circular muscle contraction according to the method of Ito et al. (Japanese Journal of Smooth Muscle Research, 13, 33, 1976). A silicone tube chronically attached into jugular vein for intravenous administration of test compounds. After the animal was recovered from the operation, test compounds were administered at about two hours after feeding while gastrointestinal motility was measured. The gastrointestinal motility was indicated as motor index, and the effects of test compounds were estimated by the change of motor index for twenty minutes before and after the administration. […]

[1] = colon, read-out: Change of Motor Index (%) Colon
[2] = stomach, read-out: Change of Motor Index (%) Stomach

| Compound | change in vivo at 0.1 mg/kg [1] [%] | change in vivo at 0.1 mg/kg [2] [%] | change in vivo at 1 mg/kg [1] [%] | change in vivo at 1 mg/kg [2] [%] |
| --- | --- | --- | --- | --- |
| COc1cc(N)c(Cl)cc1C(=O)N[C@H]1CCN(CC(=O)O)C[C@H]1OC (relative stereo) [Example 64, cis-[4-(4-Amino-5-chloro-2-methoxybenzamido)-3-methoxypiperidino]acetic acid] | 234 | 200 |  |  |
| CCOC(=O)CN1[C@@H]2CCC[C@H]1C[C@@H](NC(=O)c1cc(Cl)c(N)cc1OC)C2 [Example 23, Ethyl endo-[3-(4-amino-5-chloro-2-methoxybenzamido)-9-azabicyclo[3.3.1]non-9-yl]acetate] |  |  | 133 | 134 |
| CCOC(=O)CCCN1[C@@H]2CCC[C@H]1C[C@@H](NC(=O)c1cc(Cl)c(N)cc1OC)C2 [Example 24, Ethyl endo-4-[3-(4-amino-5-chloro-2-methoxybenzamido)-9-azabicyclo[3.3.1]non-9-yl]butyrate] | 135 | 116 |  |  |
| CCOC(=O)CCCCCN1[C@@H]2CCC[C@H]1C[C@@H](NC(=O)c1cc(Cl)c(N)cc1OC)C2 [Example 25, Ethyl endo-6-[3-(4-amino-5-chloro-2-methoxybenzamido)-9-azabicyclo[3.3.1]non-9-yl]hexanoate] |  |  | 133 | 181 |
| CCOC(=O)CCN1[C@@H]2CCC[C@H]1C[C@@H](NC(=O)c1cc(Cl)c(N)cc1OC)C2 [Example 27, Ethyl endo-3-[3-(4-amino-5-chloro-2-methoxybenzamido)-9-azabicyclo[3.3.1]non-9-yl]propionate] | 134 | 113 |  |  |
| CCOC(=O)CCCCN1[C@@H]2CCC[C@H]1C[C@@H](NC(=O)c1cc(Cl)c(N)cc1OC)C2 [Example 28, Ethyl endo-5-[3-(4-amino-5-chloro-2-methoxybenzamido)-9-azabicyclo[3.3.1]non-9-yl]valerate] |  |  | 164 | 142 |
| CCOC(=O)CN1[C@@H]2CC[C@H]1C[C@@H](NC(=O)c1cc(Cl)c(N)cc1OC)C2 [Example 32, Ethyl endo-[3-(4-amino-5-chloro-2-methoxybenzamido)-8-azabicyclo[3.2.1]oct-8-yl]acetate] |  |  | 158 | 177 |
| CCOC(=O)CN1[C@@H]2CC[C@H]1C[C@H](NC(=O)c1cc(Cl)c(N)cc1OC)C2 [Example 33, Ethyl exo-[3-(4-amino-5-chloro-2-methoxybenzamido)-8-azabicyclo[3.2.1]oct-8-yl]acetate] |  |  | 117 | 147 |
| COc1cc(N)c(Cl)cc1C(=O)N[C@H]1C[C@H]2CCC[C@@H](C1)N2CC(=O)O [Example 34, endo-[3-(4-Amino-5-chloro-2-methoxybenzamido)-9-azabicyclo[3.3.1]non-9-yl]acetic acid hydrochloride] |  |  | 192 | 187 |
| COc1cc(N)c(Cl)cc1C(=O)N[C@H]1C[C@H]2CCC[C@@H](C1)N2CCCC(=O)O [Example 35, endo-4-[3-(4-Amino-5-chloro-2-methoxybenzamido)-9-azabicyclo[3.3.1]non-9-yl]butyric acid hydrochloride] |  |  | 136 | 187 |
| COc1cc(N)c(Cl)cc1C(=O)N[C@H]1C[C@H]2CCC[C@@H](C1)N2CCCCCC(=O)O [Example 36, endo-6-[3-(4-Amino-5-chloro-2-methoxybenzamido)-9-azabicyclo[3.3.1]non-9-yl]hexanoic acid hydrochloride] |  |  | 120 | 196 |
| COc1cc(N)c(Cl)cc1C(=O)N[C@H]1C[C@H]2CCC[C@@H](C1)N2CCC(=O)O [Example 38, endo-3-[3-(4-Amino-5-chloro-2-methoxybenzamido)-9-azabicyclo[3.3.1]non-9-yl]propionic acid hydrochloride] |  |  | 140 | 146 |
| COc1cc(N)c(Cl)cc1C(=O)N[C@H]1C[C@H]2CCC[C@@H](C1)N2CCCCC(=O)O [Example 39, endo-5-[3-(4-Amino-5-chloro-2-methoxybenzamido)-9-azabicyclo[3.3.1]non-9-yl]valeric acid hydrochloride] | 159 | 135 |  |  |
| CCOc1cc(N)c(Cl)cc1C(=O)NC1CC2CCCC(C1)N2CC(=O)O (stereo not drawn) [Example 41, endo-[3-(4-Amino-5-chloro-2-ethoxybenzamido)-9-azabicyclo[3.3.1]non-9-yl]acetic acid hydrochloride] |  |  | 172 | 118 |
| COc1cc(N)c(Cl)cc1C(=O)NC1CC2CCC(C1)N2CC(=O)O (stereo not drawn) [Example 43, endo-[3-(4-Amino-5-chloro-2-methoxybenzamido)-8-azabicyclo[3.2.1]oct-8-yl]acetic acid hydrochloride] |  |  | 505 | 166 |
| CCOC(=O)CN1CCC(NC(=O)c2cc(Cl)c(N)cc2OC)CC1 [Example 46, Ethyl [4-(4-amino-5-chloro-2-methoxybenzamido)piperidino]acetate hydrochloride] |  |  | 166 | 182 |
| COc1cc(N)c(Cl)cc1C(=O)NC1CCN(CC(=O)O)CC1 [Example 58, [4-[(4-Amino-5-chloro-2-methoxybenzamido)piperidino]acetic acid hydrochloride] | 218 | 181 |  |  |
| COc1cc(N)c(Cl)cc1C(=O)NC1CCN(C(C)C(=O)O)CC1 (stereo not drawn) [Example 63, 2-[4-(4-Amino-5-chloro-2-methoxybenzamido)piperidino]propionic acid] |  |  | 157 | 130 |
